These results are taken from patent US20130029936A1, “Inclusion Compounds of Fumagillol Derivative or its Salt, and Pharmaceutical Compositions Comprising the Same” (priority 2002, published 2013).

Data set [1] is described as follows: Solubility in sulfobutylether-7-β-cyclodextrin solution (HPLC of filtrate). The class given is physicochemical. Conditions: 4° C., 72 hr. Here is the method:
O-(4-dimethylaminoethoxycinnamoyl)fumagillol (30 mg) was added to 1.5, 3.5, 7.0, 14.0, 28.0 w/v % sulfobutylether-7-β-cyclodextrin solution, respectively, and stirred at 4° C. After 72 hr, the mixture was filtered with 0.2 μm membrabe filter and O-(4-dimethylaminoethoxycinnamoyl)fumagillol in the filtrate was determined by high pressure liquid chromatography (HPLC). The solubility of O-(4-dimethylaminoethoxycinnamoyl)fumagillol as a function of the sulfobutylether-7-β-cyclodextrin concentration was represented in Table 2.
O-(3,4,5-trimethoxycinnamoyl)fumagillol (20 mg) was added to 1.5, 3.5, 7.0, 14.0, 28.0 w/v % sulfobutylether-7-β-cyclodextrin solution, respectively, and stirred at 4° C. After 72 hr, the mixture was filtered with 0.2 μm membrabe filter and O-(3,4,5-trimethoxycinnamoyl)fumagillol in the filtrate was determined by high pressure liquid chromatography (HPLC). The solubility of O-(3,4,5-trimethoxycinnamoyl)fumagillol as a function of the sulfobutyletyher-7-β-cyclodextrin concentration was shown in Table 4.

A short description of data set [2]: Solubility in hydroxypropyl-β-cyclodextrin solution (HPLC of filtrate). The class given is physicochemical.
Assay in data set [3]: as above
The class given is physicochemical. The settings on record: 4° C., 72 hr. As for the experimental part: O-(4-dimethylaminoethoxycinnamoyl)fumagillol (30 mg) was added to 1.5, 3.5, 7.0, 14.0, 28.0 w/v % hydroxypropyl-β-cyclodextrin solution, respectively, and stirred at 4° C. After 72 hr, the mixture was filtered with 0.2 μm membrabe filter and O-(4-dimethylaminoethoxycinnamoyl)fumagillol in the filtrate was determined by high pressure liquid chromatography (HPLC). The solubility of O-(4-dimethylamino ethoxycinnamoyl)fumagillol as a function of the hydroxypropyl-β-cyclodextrin concentration was represented in Table 1.
O-(3,4,5-trimethoxycinnamoyl)fumagillol (20 mg) was added to 1.5, 3.5, 7.0, 14.0, 28.0 w/v % hydroxypropyl-β-cyclodextrin solution, respectively, and stirred at 4° C. After 72 hr, the mixture was filtered with 0.2 μm membrabe filter and O-(3,4,5-trimethoxycinnamoyl)fumagillol in the filtrate was determined by high pressure liquid chromatography (HPLC). The solubility of O-(3,4,5-trimethoxycinnamoyl)fumagillol as a function of the hydroxypropyl-β-cyclodextrin concentration was shown in Table 3.

A short description of data set [4]: Stability of lyophilized powders under storage at 25° C. (residual amount by HPLC). It counts as physicochemical. As for the experimental part: The stability of the lyophilized powders obtained in Example 6 was compared with that of O-(4-dimethylaminoethoxycinnamoyl)fumagillol alone under storage at 25° C. The residual amount of O-(4-dimethylaminoethoxycinnamoyl)fumagillol was determined by HPLC.
The stability of the lyophilized powders obtained in Example 7 was compared with that of O-(3,4,5-trimethoxycinnamoyl)fumagillol alone at 25° C. The residual amount of O-(3,4,5-trimethoxycinnamoyl)fumagillol was determined by HPLC.

Data set [5] has as its system Lewis lung carcinoma. The data set is described as follows: Tumor growth inhibition, subcutaneously implanted Lewis lung carcinoma. The class given is in vivo. The settings on record: BDF1 mice. As for the experimental part:
Pre-prepared tumor mass (Lewis lung carcinoma) of 8 mm^3 was subcutaneously implanted into the right axillary region of BDF1 mice (4 weeks). When the tumor size was 100-200 mm^3, mice were divided randomly into treatment group and control group. The treatment group was administered subcutaneously with O-(4-ethylaminoethoxycinnamoyl)fumagillol or the complex of O-(4-ethylaminoethoxycinnamoyl)fumagillol with hydroxypropyl-β-cyclodextrin at a dose of 30 mg/kg or 120 mg/kg as O-(4-ethylaminoethoxycinnamoyl)fumagillol every other day for 5 injections, while the control group was given injections of 0.2 ml of phosphate buffered saline. The tumors were weighed on the final day, and tumor volume was calculated using the following equation:
Tumor volume (mm^3)=a×b^2×0.5
(a: the longest diameter, b: the shortest diatheter) Inhibition ratio (IR %) of the treatment group relative to the untreated control group was calculated using the following equation:
=(1−Tumor volume of Treatment group/Tumor volume of Control group)×100
=(1−Tumor weight of Treatment group/Tumor weight of Control group)×100

The nature of data set [6]: Solubility evaluation with cosolvents and surfactants. The class given is physicochemical. The source says: However, these formulations have a number of disadvantages, which are the inability to guarantee the long-term stability due to facile hydrolysis in solution state, the inability to be buffered due to increased sensitivity to ions resulting in precipitation and further, the toxicity of the surfactants.

The nature of data set [7]: Stability (hydrolysis) in acidic, neutral and basic solutions at 50° C. with hydroxypropyl-β-cyclodextrin. The class given is physicochemical. As for the experimental part: The stability of O-(4-dimethylaminoethoxycinnamoyl)fumagillol was investigated in the presence of various concentrations of hydroxypropyl-β-cyclodextrin in acidic, neutral and basic solutions at 50° C. The residual amount of O-(4-dimethylaminoethoxycinnamoyl)fumagillol in each solution was determined by HPLC.

Data set [8] can be described thus: Solubility in phosphate buffer (pH 6.7) containing hydroxypropyl-β-cyclodextrin. The class given is physicochemical. Conditions: 4° C., 72 hr. Here is the method:
O-(4-dimethylaminoethoxycinnamoyl)fumagillol (50 mg) was added to phosphate buffer (pH 6.7) containing 1.5, 3.5, 7.0 and 14.0 w/v % hydroxypropyl-β-cyclodextrin, respectively, and stirred at 4° C. After 72 hr, the mixture was filtered with 0.2 μm membrabe filter and O-(4-dimethylaminoethoxycinnamoyl)fumagillol in the filtrate was determined by high pressure liquid chromatography (HPLC). The solubility of O-(4-dimethylaminoethoxycinnamoyl)fumagillol as a function of the hydroxypropyl-β-cyclodextrin concentration was shown in Table 5.

The conditions of data set [9]: cited from earlier work.
The mark [10] stands for this setting: 0 w/v % sulfobutylether-7-β-cyclodextrin.
Setting [11] is: 1.5 w/v % sulfobutylether-7-β-cyclodextrin.
Where [12] appears, read: 3.5 w/v % sulfobutylether-7-β-cyclodextrin.
The mark [13] stands for this setting: 14.0 w/v % sulfobutylether-7-β-cyclodextrin.
Where [14] appears, read: 28.0 w/v % sulfobutylether-7-β-cyclodextrin.
Setting [15] is: 0 w/v % hydroxypropyl-β-cyclodextrin, 4° C., 72 hr.
[16] abbreviates: 1.5 w/v % hydroxypropyl-β-cyclodextrin.
Setting [17] is: 3.5 w/v % hydroxypropyl-β-cyclodextrin.
Setting [18] is: 14.0 w/v % hydroxypropyl-β-cyclodextrin.
The mark [19] stands for this setting: 28.0 w/v % hydroxypropyl-β-cyclodextrin.
Setting [20] is: Total Dose 150 mg/kg (30 mg/kg subcutaneously every other day, 5 injections).
The mark [21] stands for this setting: Total Dose 600 mg/kg (120 mg/kg subcutaneously every other day, 5 injections).
[22] abbreviates: Acidic (pH 3.2), 2 w/v % hydroxypropyl-β-cyclodextrin.
[23] abbreviates: Acidic (pH 3.2), 5 w/v % hydroxypropyl-β-cyclodextrin.
Where [24] appears, read: Acidic (pH 3.2), 10 w/v % hydroxypropyl-β-cyclodextrin.
Setting [25] is: Acidic (pH 3.2), 20 w/v % hydroxypropyl-β-cyclodextrin.
Setting [26] is: Basic (pH 11.5), 2 w/v % hydroxypropyl-β-cyclodextrin.
Where [27] appears, read: Basic (pH 11.5), 5 w/v % hydroxypropyl-β-cyclodextrin.
Where [28] appears, read: Basic (pH 11.5), 10 w/v % hydroxypropyl-β-cyclodextrin.
Where [29] appears, read: Basic (pH 11.5), 20 w/v % hydroxypropyl-β-cyclodextrin.
[30] abbreviates: Neutral (pH 7.2), 2 w/v % hydroxypropyl-β-cyclodextrin.
[31] abbreviates: Neutral (pH 7.2), 5 w/v % hydroxypropyl-β-cyclodextrin.
The mark [32] stands for this setting: Neutral (pH 7.2), 10 w/v % hydroxypropyl-β-cyclodextrin.
[33] abbreviates: Neutral (pH 7.2), 20 w/v % hydroxypropyl-β-cyclodextrin.

Structures are written as SMILES. Converted amounts (≈) assume the structure as drawn.

One may read the Solubility as the dissolved amount per volume that the medium holds. `COc1cc(C=CC(=O)OC2CCC3(CO3)C(C3(C)OC3CC=C(C)C)C2OC)cc(OC)c1OC` (centres unmarked) [O-(3,4,5-trimethoxycinnamoyl)fumagillol]: the Solubility was determined as 2 µg/mL (≈ 0.00398 mM) in data set [1] (setting [10]); 580 µg/mL (≈ 1.15 mM) in data set [1] (setting [11]); 1380 µg/mL (≈ 2.75 mM) in data set [1] (setting [12]); 2750 µg/mL (≈ 5.47 mM) in data set [1] (7.0 w/v % sulfobutylether-7-β-cyclodextrin); 5690 µg/mL (≈ 11.3 mM) in data set [1] (setting [13]); 11670 µg/mL (≈ 23.2 mM) in [1] (setting [14]). The Solubility is 2 µg/mL (≈ 0.00398 mM) in data set [2] (setting [15]); 430 µg/mL (≈ 0.856 mM) in data set [3] (setting [16]); 1520 µg/mL (≈ 3.02 mM) in data set [3] (setting [17]); 3540 µg/mL (≈ 7.04 mM) in data set [3] (7.0 w/v % hydroxypropyl-β-cyclodextrin); 6720 µg/mL (≈ 13.4 mM) in [3] (setting [18]); 12020 µg/mL (≈ 23.9 mM) in data set [3] (setting [19]). In [4] (25° C., after 1 month), the “Residual amount of O-(3,4,5-trimethoxycinnamoyl)fumagillol (%) after 1 month” value was found to be 65.3%.
Regarding `CO[C@@H]1[C@H](OC(=O)C=Cc2ccc(OCCN(C)C)cc2)CC[C@]2(CO2)[C@H]1[C@@]1(C)O[C@@H]1CC=C(C)C` [O-(4-dimethylaminoethoxycinnamoyl)fumagillol], the Solubility worked out at 50 µg/mL (≈ 0.1 mM) in data set [1] (setting [10]); 870 µg/mL (≈ 1.74 mM) in [1] (setting [11]); 2240 µg/mL (≈ 4.48 mM) in [1] (setting [12]); 10430 µg/mL (≈ 20.9 mM) in data set [1] (setting [13]); 21300 µg/mL (≈ 42.6 mM) in data set [1] (setting [14]); 50 µg/mL (≈ 0.1 mM) in [2] (setting [15]). Besides, the Solubility in data set [2] (in water) was 50 µg/mL (≈ 0.1 mM); in [3] (setting [16]), 1030 µg/mL (≈ 2.06 mM); in data set [3] (setting [17]) it was 2930 µg/mL (≈ 5.86 mM); in [3] (setting [18]) it was 11540 µg/mL (≈ 23.1 mM); in data set [3] (setting [19]), 22640 µg/mL (≈ 45.3 mM); in data set [6] (aqueous formulation containing 10% Cremophor-EL alone), “about 5 mg/ml”. Moreover, the Solubility entry in data set [6] (aqueous formulation containing a mixture of 10% ethanol and 10% Tween 80) was “about 5 mg/ml”; in data set [8] (phosphate buffer pH 6.7, 0 w/v % hydroxypropyl-β-cyclodextrin), 2380 µg/mL (≈ 4.76 mM); in data set [8] (phosphate buffer pH 6.7, 1.5 w/v % hydroxypropyl-β-cyclodextrin) it was 4240 µg/mL (≈ 8.49 mM); in data set [8] (phosphate buffer pH 6.7, 3.5 w/v % hydroxypropyl-β-cyclodextrin) it was 9860 µg/mL (≈ 19.7 mM); in data set [8] (phosphate buffer pH 6.7, 7.0 w/v % hydroxypropyl-β-cyclodextrin) it was 17590 µg/mL (≈ 35.2 mM). The results for the “Inhibition Ratio (%), Tumor Tissue Volume” value in [5] (setting [20]) and in [5] (setting [21]) were 37.7% and 63.3%, respectively. Moreover, the “Inhibition Ratio (%), Tumor Tissue Weight” value stood at 33.6% in data set [5] (setting [20]) and 71.4% in data set [5] (setting [21]). The “increase of aqueous solubility” value in [2] (depending the pH and the concentration of hydroxypropyl-β-cyclodextrin or sulfobutylether-7-β-cyclodextrin) is 20-1000 fold. Also, in data set [4] (storage at 25° C., after 1 month), the “Residual amount of O-(4-dimethylaminoethoxycinnamoyl)fumagillol (%) after 1 month” value came out at 72.8%. Moreover, the “Residual amount of O-(4-dimethylaminoethoxycinnamoyl)fumagillol (%) after 3 month” value in data set [4] (storage at 25° C., after 3 month) was 54.3%. The “kobs (Hydrolysis Rate Constant)” value in [7] (Acidic (pH 3.2), 0 w/v % hydroxypropyl-β-cyclodextrin) was found to be 0.2042 h⁻¹; in data set [7] (setting [22]), 0.0976 h⁻¹; in data set [7] (setting [23]) it was 0.0848 h⁻¹; in [7] (setting [24]) it was 0.0754 h⁻¹; in data set [7] (setting [25]), 0.0665 h⁻¹; in data set [7] (Basic (pH 11.5), 0 w/v % hydroxypropyl-β-cyclodextrin), 0.0918 h⁻¹. For the same compound, the “kobs (Hydrolysis Rate Constant)” value is 0.0816 h⁻¹ in data set [7] (setting [26]); 0.0580 h⁻¹ in data set [7] (setting [27]); 0.0453 h⁻¹ in data set [7] (setting [28]); 0.0294 h⁻¹ in data set [7] (setting [29]); 0.0162 h⁻¹ in data set [7] (Neutral (pH 7.2), 0 w/v % hydroxypropyl-β-cyclodextrin); 0.0141 h⁻¹ in [7] (setting [30]). Moreover, the “kobs (Hydrolysis Rate Constant)” value in data set [7] (setting [31]) stood at 0.0137 h⁻¹; in data set [7] (setting [32]), 0.0122 h⁻¹; in [7] (setting [33]), 0.0115 h⁻¹. The “Inhibition ratio (%)” value in data set [7] (setting [22]) came to 52.20%; in [7] (setting [23]), 58.47%; in data set [7] (setting [24]), 63.08%; in [7] (setting [25]) it was 67.43%; in data set [7] (setting [26]), 5.00%; in [7] (setting [27]), 16.55%. Moreover, the “Inhibition ratio (%)” value in [7] (setting [28]) came out at 22.77%; in [7] (setting [29]) it was 30.56%; in data set [7] (setting [30]), 12.96%; in data set [7] (setting [31]), 15.43%; in [7] (setting [32]), 24.96%; in [7] (setting [33]), 29.01%.
In the case of `OC[C@H]1O[C@@H]2O[C@H]3[C@H](O)[C@@H](O)[C@@H](O[C@H]4[C@H](O)[C@@H](O)[C@@H](O[C@H]5[C@H](O)[C@@H](O)[C@@H](O[C@H]6[C@H](O)[C@@H](O)[C@@H](O[C@H]7[C@H](O)[C@@H](O)[C@@H](O[C@H]8[C@H](O)[C@@H](O)[C@@H](O[C@H]1[C@H](O)[C@H]2O)O[C@@H]8CO)O[C@@H]7CO)O[C@@H]6CO)O[C@@H]5CO)O[C@@H]4CO)O[C@@H]3CO` [β-cyclodextrin], in data set [9], the aqueous solubility is 1.8 g per 100 ml of water.
